Assay results reported in patent US11696913B2, “Prolonged ectoparasite-controlling agent for animal” (MITSUI CHEMICALS AGRO, INC., priority 2017, dated 2023).
Like-named read-outs stand apart in the source and are kept apart here.

What was measured:
Ctenocephalides felis [1] = experiment: In vitro contact test with fleas; details: read-out: insecticidal activity; for pest or weed control at 0.04 µg/cm2, 0.04 µg/cm2: dose 0.04 μg/cm^2, dead or moribund fleas after 48 h; for pest or weed control at 0.2 µg/cm2, 0.2 µg/cm2: dose 0.2 μg/cm^2, dead or moribund fleas after 48 h; for pest or weed control at 1 µg/cm2, 1 µg/cm2: dose 1 μg/cm^2, dead or moribund fleas after 48 h
Method in brief: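 Adult male and female cat fleas (5-10 per tube) placed in glass tubes coated with compound from acetone solution (900 ppm gives 5 μg/cm^2), kept at room temperature and ambient humidity. After 48 h, motionless or uncoordinated fleas scored dead or moribund; activity expressed as % dead or moribund.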

Amblyomma americanum = experiment: In vitro contact test with hard ticks (Amblyomma americanum nymphs); details: dose 1 μg/cm^2, 48 h, read-out: acaricidal activity
Method in brief: (§1)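 Adult R. sanguineus, I. ricinus, D. variabilis or A. americanum nymphs exposed in glass vials coated with compound from acetone (900 ppm gives 5 μg/cm^2). Held 48 h at room temperature (R. sanguineus) or 21° C., 85% rel. hum.; then heated at 45-50° C. ≤5 min, motionless or uncoordinated ticks scored dead/moribund.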

Dermacentor variabilis [2] = experiment: In vitro contact test with adult hard ticks (Dermacentor variabilis); details: read-out: acaricidal activity; for pest or weed control at 0.2 µg/cm2, 0.2 µg/cm2: dose 0.2 μg/cm^2, 48 h; for pest or weed control at 1 µg/cm2, 1 µg/cm2: dose 1 μg/cm^2, 48 h
Method in brief: as §1

Ixodes ricinus = experiment: In vitro contact test with adult hard ticks (Ixodes ricinus); details: read-out: acaricidal activity; for pest or weed control at 5 µg/cm2, 5 µg/cm2: dose 5 μg/cm^2, 48 h
Method in brief: as §1

[3] = system: Rhipicephalus (Boophilus) microplus; experiment: In vitro injection test with Rhipicephalus (Boophilus) microplus (BOOPMI Inj); details: 168 h, laid fertile eggs after 7 days, read-out: acaricidal activity; for pest or weed control at 32 ng: dose 0.032 μg/animal injected; for pest or weed control at 0.00016 mg: dose 0.16 μg/animal injected; for pest or weed control at 0.0008 mg: dose 0.8 μg/animal injected
Method in brief: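 Test substance in DMSO; 1 μl injected into abdomen of each of 5 engorged adult female ticks, then held at 28° C., 85% rel. hum. Activity scored after 7 days from laying of fertile eggs: 100% = no eggs or all infertile, 0% = all eggs fertile.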

Ctenocephalides felis [4] = experiment: Ctenocephalides felis in-vitro feeding test with fleas (CTECFE oral); details: 48 hours, read-out: insecticidal feeding activity; for pest or weed control at 0.032 ppm: dose 0.032 ppm in citrated cattle blood; for pest or weed control at 0.16 ppm: dose 0.16 ppm in citrated cattle blood; for pest or weed control at 0.8 ppm: dose 0.8 ppm in citrated cattle blood; for pest or weed control at 4 ppm: dose 4 ppm in citrated cattle blood
Method in brief: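 About 20 unfed adult cat fleas fed through parafilm on citrated cattle blood containing test substance (DMSO solution diluted in blood), held at about 37° C. Kill rate scored after 48 hours, 100% meaning all fleas dead.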

Ctenocephalides felis [5] = experiment: Systemic treatment in-vivo test with cat flea on rats; details: intraperitoneal injection; for inhibition in vivo at 10 mg/kg: Ctenocephalides felis, ip
Protocol: (§2) Systemic Treatment In-Vivo Test with American Dog Tick Nymph and Cat Flea on Rats
(§3) Type of study and overall study design: The method is a randomized non-blinded efficacy study in accordance with European animal welfare requirements. Rats (Rattus norvegicus) were randomized based on pre-treatment flea counts. The efficacy of treatment was determined by comparison of the flea and tick counts of different treatment groups versus the placebo-treated control group. The experimental unit was the individual study animal. Method and route of administration: The compound was applied in a suitable solvent and carrier (more specifically, added to glycerol formal; in case of poorly soluble compounds, a solvent mixture with up to 25% by volume of N-methyl pyrrolidone may be used.) considering the individual body weight as an intraperitoneal injection.
(§4) Experimental infestation: On the day of treatment and weekly thereafter, 30 ticks (D. variabilis nymphs) were released onto the back of each rat, and 30 fleas (C. felis) were released onto the back of each rat 24 h later.
(§5) Tick and Flea counting: Rats were thoroughly examined and ticks and fleas were manually removed 48 h (±4 h) after tick infestation and 24 h after flea infestation. Live fleas and live attached engorged ticks were counted. In non-evident cases, engorgement status was evaluated by squeezing the tick on a filter paper to find traces of blood as sign for engorgement.

Spodoptera litura = experiment: Insecticidal testing against common cutworm; type: in vivo; details: foliar, 144 h, concentration 100 ppm, cabbage leaf dip, second-stage larvae, after 6 days, read-out: pesticidal rate
Excerpt: Insecticidal Testing Against Common Cutworm (Spodoptera litura)

Plutella xylostella = experiment: Insecticidal testing against diamondback moth; type: in vivo; details: foliar, 144 h, concentration 100 ppm, cabbage leaf dip, third-stage larvae, after 6 days, read-out: pesticidal rate
Excerpt: Insecticidal Testing Against Diamondback Moth (Plutella xylostella)

Laodelphax striatellus = experiment: Insecticidal testing against small brown planthopper; type: in vivo; details: 144 h, concentration 100 ppm, sprayed rice seedlings, after 6 days, read-out: pesticidal rate
Method in brief: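 Acetone solution of compound at a set concentration sprayed onto rice seedlings, air-dried, then exposed to 10 planthoppers (one group). Held at 25° C; survival rate recorded after 6 days.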

Rhipicephalus sanguineus = experiment: In vitro contact test with adult hard ticks (Rhipicephalus sanguineus); details: read-out: acaricidal activity; for pest or weed control at 0.2 µg/cm2, 0.2 µg/cm2: dose 0.2 μg/cm^2, 48 h; for pest or weed control at 1 µg/cm2, 1 µg/cm2: dose 1 μg/cm^2, 48 h
Method in brief: as §1

Dermacentor variabilis [6] = experiment: Systemic treatment in-vivo test with American dog tick nymph on rats; details: intraperitoneal injection; for inhibition in vivo at 2 mg/kg: Dermacentor variabilis, ip
Protocol: as §2, §3, §4, §5

Ctenocephalides felis [7] = experiment: Topical treatment in-vivo test with cat flea on rats; details: topical spot-on, 10 mg/kg
Protocol: Topical Treatment In-Vivo Test with American Dog Tick Nymph and Cat Flea on Rats
Type of study and overall study design: The method is a randomized non-blinded efficacy study in accordance with European animal welfare requirements. Rats (Rattus norvegicus) were randomized based on pre-treatment flea counts. The efficacy of treatment was determined by comparison of the flea and tick counts of different treatment groups versus the placebo-treated control group. The experimental unit was the individual study animal.
Method and route of administration: The compound was applied in a suitable solvent and carrier (more specifically, added to the following mixture: 33.3% by weight propylene carbonate, […] N-methylpyrrolidone, 0.1% by weight BHA, 0.05% by weight BHT) considering the individual body weight as topical spot-on between the shoulder blades directly onto the skin.
as §4
as §5, with “(+4” for “(±4”

[8] = 10 mg/kg, SD 2, read-out: Geometric mean percent reduction in live flea (Ctenocephalides felis) counts compared to untreated control rats
[9] = 10 mg/kg, SD 9, read-out: Geometric mean percent reduction in live flea (Ctenocephalides felis) counts compared to untreated control rats
[10] = 10 mg/kg, SD 16, read-out: Geometric mean percent reduction in live flea (Ctenocephalides felis) counts compared to untreated control rats
[11] = 10 mg/kg, SD 23, read-out: Geometric mean percent reduction in live flea (Ctenocephalides felis) counts compared to untreated control rats

Row | SMILES | pest or weed control at 0.04 µg/cm2, 0.04 µg/cm2 (Ctenocephalides felis [1]) | pest or weed control at 0.2 µg/cm2, 0.2 µg/cm2 (Ctenocephalides felis [1]) | pest or weed control at 1 µg/cm2, 1 µg/cm2 (Ctenocephalides felis [1]) | pest or weed control at 0.2 µg/cm2, 0.2 µg/cm2 (Dermacentor variabilis [2]) | pest or weed control at 1 µg/cm2, 1 µg/cm2 (Dermacentor variabilis [2]) | pest or weed control at 5 µg/cm2, 5 µg/cm2 (Ixodes ricinus) | pest or weed control at 32 ng [3] | pest or weed control at 0.00016 mg [3] | pest or weed control at 0.0008 mg [3] | pest or weed control at 0.032 ppm (Ctenocephalides felis [4]) | pest or weed control at 0.16 ppm (Ctenocephalides felis [4]) | pest or weed control at 0.8 ppm (Ctenocephalides felis [4]) | pest or weed control at 4 ppm (Ctenocephalides felis [4]) | inhibition in vivo at 10 mg/kg (Ctenocephalides felis [5]; [8]) | inhibition in vivo at 10 mg/kg (Ctenocephalides felis [5]; [9]) | inhibition in vivo at 10 mg/kg (Ctenocephalides felis [5]; [10]) | inhibition in vivo at 10 mg/kg (Ctenocephalides felis [5]; [11]) | pest or weed control at 100 ppm (Spodoptera litura) | pest or weed control at 100 ppm (Plutella xylostella) | pest or weed control at 100 ppm (Laodelphax striatellus) | also measured
1 | CN(C(=O)c1ccc(F)cc1)c1cccc(C(=O)Nc2c(Br)cc(C(F)(C(F)(F)F)C(F)(F)C(F)(F)F)cc2C(F)(F)F)c1F (stereo not drawn) [Compound 93] | 95% | 95% | 95% | 90% | 90% | 90% | 100% | 100% | 100% | 95% | 95% | 95% | 95% | 100% | 97% | 68% | 14% | ≥ 70% | ≥ 70% | ≥ 70% | pest or weed control at 1 µg/cm2, 1 µg/cm2 (Amblyomma americanum): 90%
2 | CN(C(=O)c1ccc(F)cc1)c1cccc(C(=O)Nc2c(I)cc(C(F)(C(F)(F)F)C(F)(F)F)cc2OC(F)F)c1F [Compound 90] | 95% | 95% | 95% | 90% | 90% | 90% | 100% | 100% | 100% | 95% | 95% | 95% | 95% |  |  |  |  | ≥ 70% | ≥ 70% | ≥ 70% | pest or weed control at 1 µg/cm2, 1 µg/cm2 (Ixodes ricinus; dose 1 μg/cm^2, 48 h): 90%; pest or weed control at 0.2 µg/cm2, 0.2 µg/cm2 (Rhipicephalus sanguineus): 90%; pest or weed control at 1 µg/cm2, 1 µg/cm2 (Rhipicephalus sanguineus): 90%; pest or weed control at 6.4 ng ([3]; dose 0.0064 μg/animal injected): 100%; inhibition in vivo at 2 mg/kg (Dermacentor variabilis [6]; 2 mg/kg, SD 2, read-out: Geometric mean percent reduction in live tick (Dermacentor variabilis) counts compared to untreated control rats): 100%; inhibition in vivo at 2 mg/kg (Dermacentor variabilis [6]; 2 mg/kg, SD 9, read-out: Geometric mean percent reduction in live tick (Dermacentor variabilis) counts compared to untreated control rats): 83%; inhibition in vivo at 2 mg/kg (Dermacentor variabilis [6]; 2 mg/kg, SD 16, read-out: Geometric mean percent reduction in live tick (Dermacentor variabilis) counts compared to untreated control rats): 29%
3 | O=C(CNC(=O)c1ccc(C2=NOC(c3cc(Cl)cc(C(F)(F)F)c3)(C(F)(F)F)C2)c2ccccc12)NCC(F)(F)F (stereo not drawn) [Afoxolaner, afoxolaner, reference compound] |  |  |  |  |  |  |  |  |  |  |  |  |  |  |  |  |  |  |  |  | Geometric mean percent reduction in live flea (Ctenocephalides felis) counts compared to untreated control rats (Ctenocephalides felis [7]; SD 2): 100%; Geometric mean percent reduction in live flea (Ctenocephalides felis) counts compared to untreated control rats (Ctenocephalides felis [7]; SD 9): 99%; Geometric mean percent reduction in live flea (Ctenocephalides felis) counts compared to untreated control rats (Ctenocephalides felis [7]; SD 16): 51%; Geometric mean percent reduction in live flea (Ctenocephalides felis) counts compared to untreated control rats (Ctenocephalides felis [7]; SD 23): 16%; Geometric mean percent reduction in live tick (Dermacentor variabilis) counts compared to untreated control rats (Dermacentor variabilis [6]; 2 mg/kg, SD 2): 86%; Geometric mean percent reduction in live tick (Dermacentor variabilis) counts compared to untreated control rats (Dermacentor variabilis [6]; 2 mg/kg, SD 9): 53%; Geometric mean percent reduction in live tick (Dermacentor variabilis) counts compared to untreated control rats (Dermacentor variabilis [6]; 2 mg/kg, SD 16): 5%; Geometric mean percent reduction in live tick (Dermacentor variabilis) counts compared to untreated control rats (Dermacentor variabilis [6]; 10 mg/kg, SD 2): 100%; Geometric mean percent reduction in live tick (Dermacentor variabilis) counts compared to untreated control rats (Dermacentor variabilis [6]; 10 mg/kg, SD 9): 10%; Geometric mean percent reduction in live tick (Dermacentor variabilis) counts compared to untreated control rats (Dermacentor variabilis [6]; 10 mg/kg, SD 16): 78%; Geometric mean percent reduction in live tick (Dermacentor variabilis) counts compared to untreated control rats (Dermacentor variabilis [6]; 10 mg/kg, SD 23): 0%; Geometric mean percent reduction in live flea (Ctenocephalides felis) counts compared to untreated control rats (Ctenocephalides felis [5]; 2 mg/kg, SD 2): 69%; Geometric mean percent reduction in live flea (Ctenocephalides felis) counts compared to untreated control rats (Ctenocephalides felis [5]; 2 mg/kg, SD 9): 20%; Geometric mean percent reduction in live flea (Ctenocephalides felis) counts compared to untreated control rats (Ctenocephalides felis [5]; 2 mg/kg, SD 16): 48%; Geometric mean percent reduction in live flea (Ctenocephalides felis) counts compared to untreated control rats (Ctenocephalides felis [5]; 10 mg/kg, SD 2): 100%; Geometric mean percent reduction in live flea (Ctenocephalides felis) counts compared to untreated control rats (Ctenocephalides felis [5]; 10 mg/kg, SD 9): 97%; Geometric mean percent reduction in live flea (Ctenocephalides felis) counts compared to untreated control rats (Ctenocephalides felis [5]; 10 mg/kg, SD 16): 60%; Geometric mean percent reduction in live flea (Ctenocephalides felis) counts compared to untreated control rats (Ctenocephalides felis [5]; 10 mg/kg, SD 23): 0%
4 | CN(C(=O)c1ccc(F)cc1)c1cccc(C(=O)Nc2c(I)cc(C(F)(C(F)(F)F)C(F)(F)F)cc2S(=O)(=O)C(F)(F)F)c1F [Compound 70, 2-fluoro-3-(4-fluoro-N-methylbenzamido)-N-(2-iodo-4-(perfluoropropan-2-yl)-6-((trifluoromethyl)sulfonyl)phenyl)benzamide] |  | 95% | 95% |  |  |  | 100% | 100% | 100% | 95% | 95% | 95% | 95% | 99% | 100% | 99% | 49% | ≥ 70% | ≥ 70% | ≥ 70% | pest or weed control at 0.2 µg/cm2, 0.2 µg/cm2 (Rhipicephalus sanguineus): 90%; pest or weed control at 1 µg/cm2, 1 µg/cm2 (Rhipicephalus sanguineus): 90%; inhibition in vivo at 10 mg/kg (Ctenocephalides felis [5]; 10 mg/kg, SD 30, read-out: Geometric mean percent reduction in live flea (Ctenocephalides felis) counts compared to untreated control rats): 7%
